Measurements: ChEMBL document CHEMBL4725408, “Antibacterial Spiropyrimidinetriones with N-Linked Azole Substituents on a Benzisoxazole Scaffold Targeting DNA Gyrase” (J Med Chem, 2020)
≈ marks a conversion by molar mass, not a printed value. Calls of active or inactive are those of the source. No cut-off for these calls is given here.

What was measured:
[1] = Plasma clearance in Wistar Han rat at 3 mg/kg, iv administered as 15 mins infusion by LC-MS/MS analysis; type: ADME, organism-based; design: unit not given here; settings: in vivo, 0.25 h
Staphylococcus aureus [2] = test: Antibacterial activity against methicillin/quinolone-resistant Staphylococcus aureus ARC517 by broth microdilution method; type: functional
Staphylococcus aureus [3] = test: Antibacterial activity against methicillin sensitive Staphylococcus aureus ARC516 by broth microdilution method; type: functional
[4] = Protein binding in human plasma assessed as unbound fraction at 10 uM measured after 16 hrs by LC-MS/MS based equilibrium dialysis method; type: ADME, cell-free
[5] = Inhibition of recombinant Escherichia coli DNA gyrase AB expressed in Escherichia coli BL21 (DE3) using relaxed pJT519 DNA as substrate preincubated for 20 mins followed by 5'-BODIPY-TMR-TTCTTCTTCT addition and measured after 1 hr by fluorescence anisotropy
Haemophilus influenzae = test: Antibacterial activity against Haemophilus influenzae ARC737 by broth microdilution method; type: functional
Escherichia coli = test: Antibacterial activity against Escherichia coli ARC523 by broth microdilution method; type: functional
Staphylococcus aureus [6] = test: Antibacterial activity against methicillin sensitive Staphylococcus aureus ARC516 in presence of human serum by broth microdilution method; type: functional
[7] = n-octanol/phosphate buffer partition coefficient, log D of the compound at pH 7.4 measured after 1 hr by UV-LC/MS based shake flask method; type: physicochemical
[8] = Unbound plasma clearance in Wistar Han rat at 3 mg/kg, iv administered as 15 mins infusion by LC-MS/MS analysis; type: ADME, organism-based; design: unit not given here; settings: in vivo, 0.25 h
L5178Y = test: Genotoxicity in mouse L5178Y cells using DAPI staining by microscopy based micronucleation assay; type: toxicity, cell-based
[9] = Solubility of the compound by high throughput solubility assay; type: physicochemical
Streptococcus pyogenes = test: Antibacterial activity against Streptococcus pyogenes ARC838 by broth microdilution method; type: functional
Streptococcus pneumoniae = test: Antibacterial activity against Streptococcus pneumoniae ARC548 by broth microdilution method; type: functional
[10] = Volume of distribution at steady state in CD-1 mouse at 3 mg/kg, iv administered as 15 mins infusion by LC-MS/MS analysis; type: ADME, organism-based; settings: in vivo, read-out: Vdss
[11] = Protein binding in mouse plasma assessed as unbound fraction at 10 uM measured after 16 hrs by LC-MS/MS based equilibrium dialysis method; type: ADME, cell-free
[12] = Plasma clearance in CD-1 mouse at 3 mg/kg, iv administered as 15 mins infusion by LC-MS/MS analysis; type: ADME, organism-based; settings: in vivo, 0.25 h
[13] = Protein binding in rat plasma assessed as unbound fraction at 10 uM measured after 16 hrs by LC-MS/MS based equilibrium dialysis method; type: ADME, cell-free
[14] = Ratio of MIC for antibacterial activity against methicillin/quinolone-resistant Staphylococcus aureus ARC517 to protein binding in human plasma assessed as unbound fraction
[15] = Half life in CD-1 mouse at 3 mg/kg, iv administered as 15 mins infusion by LC-MS/MS analysis; type: ADME, organism-based; settings: in vivo
[16] = Oral bioavailability in CD-1 mouse at 10 mg/kg by LC-MS/MS analysis; type: ADME, organism-based; settings: in vivo
Staphylococcus aureus [17] = test: Antibacterial activity against methicillin sensitive Staphylococcus aureus ARC516 infected in CD-1 mouse neutropenic thigh infection model assessed as reduction in colony forming unit at 20 mg/kg, ip bid in presence of ABT; type: functional, organism-based
[18] = Oral bioavailability in Wistar Han rat at 10 mg/kg by LC-MS/MS analysis; type: ADME, organism-based; settings: in vivo
Staphylococcus aureus [19] = test: Antibacterial activity against methicillin sensitive Staphylococcus aureus ARC516 infected in CD-1 mouse neutropenic thigh infection model assessed as log reduction in colony forming unit at 100 mg/kg, ip bid in presence of ABT relative to initial treatment control; type: functional
[20] = Unbound plasma clearance in CD-1 mouse at 3 mg/kg, iv administered as 15 mins infusion by LC-MS/MS analysis; type: ADME, organism-based; settings: in vivo, 0.25 h
[21] = Half life in Wistar Han rat at 3 mg/kg, iv administered as 15 mins infusion by LC-MS/MS analysis; type: ADME, organism-based; settings: in vivo
[22] = Volume of distribution at steady state in Wistar Han rat at 3 mg/kg, iv administered as 15 mins infusion by LC-MS/MS analysis; type: ADME, organism-based; settings: in vivo, read-out: Vdss
Staphylococcus aureus [23] = test: Antibacterial activity against methicillin sensitive Staphylococcus aureus ARC516 infected in CD-1 mouse neutropenic thigh infection model assessed as log reduction in colony forming unit at 50 to 75 mg/kg, ip measured after 24 hrs relative to initial treatment control; type: functional; settings: dose mg/kg 50-75
Staphylococcus aureus [24] = test: Antibacterial activity against methicillin sensitive Staphylococcus aureus ARC516 infected in CD-1 mouse neutropenic thigh infection model assessed as log reduction in colony forming unit at 50 to 75 mg/kg, ip measured after 24 hrs relative to untreated control; type: functional; settings: dose mg/kg 50-75
Staphylococcus aureus [25] = test: Antibacterial activity against methicillin sensitive Staphylococcus aureus ARC516 infected in CD-1 mouse neutropenic thigh infection model assessed as reduction in colony forming unit at 10 to 25 mg/kg, ip measured after 24 hrs; type: functional, organism-based

Compound	CL [1]	MIC (Staphylococcus aureus [2]) [µM]	MIC (Staphylococcus aureus [3]) [µM]	fraction unbound at 16 h, 10 µM [4]	IC50 [5] [µM]	MIC (Haemophilus influenzae) [µM]	MIC (Escherichia coli) [µM]	MIC (Staphylococcus aureus [6]) [µM]	logD at 1 h [7]	CL free [8]	NOAEL (L5178Y) [µM]	solubility [9] [µM]	MIC (Streptococcus pyogenes) [µM]	MIC (Streptococcus pneumoniae) [µM]	fraction unbound at 16 h, 10 µM [11]	CL [12] [mL/min/kg]	fraction unbound at 16 h, 10 µM [13]	Ratio [14]	bioavailability [16] [%]	bioavailability [18] [%]	other results
CNc1ncnn1-c1noc2c(F)c3c(cc12)CC1(C(=O)NC(=O)NC1=O)[C@H]1[C@H](C)O[C@H](C)CN31	32	0.2 (≈ 0.0969 µg/mL)	0.049 (≈ 0.0237 µg/mL)	0.08	0.071	0.39 (≈ 0.189 µg/mL)	16 (≈ 7.75 µg/mL)	< 0.2	2.1	190	3	280 (≈ 136 µg/mL)	0.19 (≈ 0.092 µg/mL)	0.19 (≈ 0.092 µg/mL)							
C[C@@H]1CN2c3c(cc4c(N5C(=O)OC[C@@H]5C)noc4c3F)CC3(C(=O)NC(=O)NC3=O)[C@H]2[C@H](C)O1 [ZOLIFLODACIN]		0.78 (≈ 0.38 µg/mL)	0.2 (≈ 0.0975 µg/mL)	0.18	0.17		6.2 (≈ 3.02 µg/mL)	0.39	1.7		> 400				0.17	0.057	0.13	4.3	43.5	31	Vd [10]: 3 L/kg; half-life [15]: 36.6 min; Activity (Staphylococcus aureus [17]): Active; log(activity) (Staphylococcus aureus [19]): 1.8; CL free [20]: 0.335 mL/min/kg; half-life [21]: 47.4 min; Vd [22]: 1.5 L/kg
C[C@@H]1CN2c3c(cc4c(-n5cncn5)noc4c3F)CC3(C(=O)NC(=O)NC3=O)[C@H]2[C@H](C)O1		0.2 (≈ 0.0911 µg/mL)	0.049 (≈ 0.0223 µg/mL)	0.13	0.22	0.39 (≈ 0.178 µg/mL)	12.5 (≈ 5.69 µg/mL)	< 0.2	1.7		< 6	250 (≈ 114 µg/mL)	0.39 (≈ 0.178 µg/mL)	0.39 (≈ 0.178 µg/mL)	0.12	0.021	0.1	1.4	37	62	log(activity) (Staphylococcus aureus [23]): >2; log(activity) (Staphylococcus aureus [24]): 4; Activity (Staphylococcus aureus [25]): Active; CL free [20]: 0.175 mL/min/kg; half-life [21]: 145 min; Vd [22]: 1.9 L/kg
C[C@@H]1CN2c3c(cc4c(-n5ccnn5)noc4c3F)CC3(C(=O)NC(=O)NC3=O)[C@H]2[C@H](C)O1		0.39 (≈ 0.178 µg/mL)	0.068 (≈ 0.031 µg/mL)	0.054	0.22		6.25 (≈ 2.85 µg/mL)	0.78	2			130 (≈ 59.2 µg/mL)						7.2			
COCc1ncnn1-c1noc2c(F)c3c(cc12)CC1(C(=O)NC(=O)NC1=O)[C@H]1[C@H](C)O[C@H](C)CN31	17	0.39 (≈ 0.195 µg/mL)	< 0.2	0.14	1.1	0.78 (≈ 0.39 µg/mL)	70 (≈ 35 µg/mL)	0.39	1.7	120	12	890 (≈ 445 µg/mL)	0.78 (≈ 0.39 µg/mL)	0.78 (≈ 0.39 µg/mL)							
C[C@@H]1CN2c3c(cc4c(-n5cnc(C#N)n5)noc4c3F)CC3(C(=O)NC(=O)NC3=O)[C@H]2[C@H](C)O1	200	0.39 (≈ 0.187 µg/mL)	0.2 (≈ 0.0961 µg/mL)		1.3	3.1 (≈ 1.49 µg/mL)	100 (≈ 48 µg/mL)	3.1	2	2600	< 6	5 (≈ 2.4 µg/mL)	0.8 (≈ 0.384 µg/mL)	1.6 (≈ 0.769 µg/mL)							
